Test: solvent given as SMILES
[1] = in O=P(c1ccccc1)(c1ccccc1)c1ccccc1Oc1ccccc1P(=O)(c1ccccc1)c1ccccc1

c1ccc2cc3cc(-c4cc(-c5nccs5)nc(-c5nccs5)c4)ccc3cc2c1 gave a fluorescence lifetime (in CC#N) of 6.92 ns, a fluorescence lifetime (in CCCCCC) of 3.35 ns and a fluorescence lifetime (in CO) of 4.04 ns. It also gave a fluorescence lifetime (in ClC(Cl)Cl) of 4.22 ns.
c1ccc2c(c1)OP1(=NP(Oc3ccc4ccc5cccc6ccc3c4c56)(Oc3ccc4ccc5cccc6ccc3c4c56)=NP(Oc3ccc4ccc5cccc6ccc3c4c56)(Oc3ccc4ccc5cccc6ccc3c4c56)=N1)Oc1ccccc1-2 showed a fluorescence lifetime (in ClCCl) of 1.23 ns.
Work on O=C([O-])c1c2ccccc2c(C(=O)[O-])c2ccccc12 yielded a fluorescence lifetime (in CN(C)C=O) of 2.2 ns.
C[n+]1c2c(c(-c3ccccc3)c3c1CCCC3)CCCC2 gave a fluorescence lifetime (in CCO) of 5.39 ns.
F[B-]1(F)Oc2ccccc2-c2cc(-n3c4ccccc4c4ccccc43)cc[n+]21 gave a fluorescence lifetime [1] of 6.7 ns.
CN1C(=CC2=C([O-])C(=CC3=[N+](C)c4ccc(Cl)cc4C3(C)C)C2=O)C(C)(C)c2cc(Cl)ccc21 showed a fluorescence lifetime (in CO) of 0.21 ns and a fluorescence lifetime (in ClC(Cl)Cl) of 1.42 ns.
Work on c1ccc(-c2ccc(-c3ccc(-c4cc(-c5ccc(-c6ccc(-c7ccccc7)cc6)cc5)cc(-c5ccc(-c6ccc(-c7ccccc7)cc6)cc5)c4)cc3)cc2)cc1 yielded a fluorescence lifetime (in C1COCCO1) of 1.05 ns.
CC1(C)C(/C=C/C2=C(Oc3ccc(CCN=C=S)cc3Br)C(=C/C=C3/N(CCCS(=O)(=O)[O-])c4ccccc4C3(C)C)/CCC2)=[N+](CCCS(=O)(=O)[O-])c2ccccc21 showed a fluorescence lifetime (in CO) of 0.912 ns.
With O=C(O)CCCc1cc2ccc3cccc4ccc(c1)c2c34 the fluorescence lifetime (in CO) was 622 ns.
CCOC(=O)c1ccc(C2=CC3=c4cc(-c5ccc(C(=O)OCC)cc5)c5nc(C(F)(F)C(F)(F)C(F)(F)F)nc6c(-c7ccc(C(=O)OCC)cc7)cc(c4c65)C4=CC(c5ccc(C(=O)OCC)cc5)=C5N=C(C(F)(F)C(F)(F)C(F)(F)F)N=C2C5C43)cc1 (stereo not drawn) gave a fluorescence lifetime (in C1CCOC1) of 2.8 ns.
Cc1ccc(S(=O)(=O)/N=c2\oc3cccc4c5c(-c6ccccc6)oc6cccc(c(c2-c2ccccc2)c34)c65)cc1 gave a fluorescence lifetime (in ClC(Cl)Cl) of 3.4 ns.
COc1ccc2cc(/C=C/C3=C4CCc5ccccc5C4=[O+][B-](F)(F)O3)ccc2c1 gave a fluorescence lifetime (in ClCCl) of 1.6 ns.
Compound CC1=[N+]2C(=Cc3cccn3[B-]2(F)F)C=C1 has a fluorescence lifetime (in CCCCCC) of 6.75 ns, a fluorescence lifetime (in CO) of 6.96 ns and a fluorescence lifetime (in ClCCl) of 6.2 ns.
For CC(C)[Si](C#Cc1cc2c(C#C[Si](C(C)C)(C(C)C)C(C)C)c(C#C[Si](C(C)C)(C(C)C)C(C)C)c3cc(C#C[Si](C(C)C)(C(C)C)C(C)C)cc4c(C#C[Si](C(C)C)(C(C)C)C(C)C)c(C#C[Si](C(C)C)(C(C)C)C(C)C)c(c1)c2c34)(C(C)C)C(C)C, the fluorescence lifetime (in ClCCl) was 14.1 ns.
Compound COc1ccc(C#Cc2c3ccccc3c(C#Cc3ccc(OC)cc3)c3cc4sc(C)cc4cc23)cc1 has a fluorescence lifetime (in ClCCl) of 5.3 ns.
Compound CCCCCCN(CCCCCC)c1ccc(C#Cc2ccc(C#N)cc2)cc1 has a fluorescence lifetime (in CC#N) of 1 ns, a fluorescence lifetime (in CO) of 1 ns and a fluorescence lifetime (in ClCCl) of 2.8 ns.
Work on CCN(CC)c1ccc(/N=N/c2nc3ccc(Br)cc3s2)cc1 yielded a fluorescence lifetime (in CC#N) of 3.03 ns and a fluorescence lifetime (in ClCCl) of 2.75 ns.
For Nc1cccc2cc3ccccc3cc12, the fluorescence lifetime (in C1CCCCC1) was 29 ns.
Work on c1ccc(-c2ccc3c(c2)c2cc(-c4ccccc4)ccc2n3-c2ccc3c(c2)c2cc(-n4c5ccc(-c6ccccc6)cc5c5cc(-c6ccccc6)ccc54)ccc2n3-c2ccc(-c3nc(-c4ccccc4)nc(-c4ccccc4)n3)cc2)cc1 yielded a fluorescence lifetime (in Cc1ccccc1) of 6.3 ns.
COc1ccc(-c2c3cc4cc(C)sc4cc3c(C#Cc3ccccc3)c3cc4cc(C)sc4cc23)cc1 showed a fluorescence lifetime (in ClCCl) of 10.8 ns.
Work on Cc1ccc(-[c+]2c3ccccc3oc3ccccc32)cc1 yielded a fluorescence lifetime (in CC#N) of 2.1 ns.
CCOC(=O)CN(CC(=O)OCC)c1ccc(-c2cc(-c3ccncc3)nc(-c3ccncc3)c2)cc1 showed a fluorescence lifetime (in CC#N) of 5.84 ns, a fluorescence lifetime (in CCOC(C)=O) of 3.77 ns and a fluorescence lifetime (in CN(C)C=O) of 6.33 ns. The fluorescence lifetime (in CS(C)=O) was 6.78 ns and the fluorescence lifetime (in c1ccccc1) was 2 ns.
CC(C)(C)c1ccc(C2=c3sc(-c4ccc(C(C)(C)C)cc4)cc3=[N+]3C2=Nc2c(-c4ccc(C(C)(C)C)cc4)c4sc(-c5ccc(C(C)(C)C)cc5)cc4n2[B-]3(F)F)cc1 gave a fluorescence lifetime (in ClC(Cl)Cl) of 1.69 ns.
Work on N#Cc1c(-n2c3ccc(Br)cc3c3cc(Br)ccc32)c(C#N)c(-n2c3ccc(Br)cc3c3cc(Br)ccc32)c(-n2c3ccc(Br)cc3c3cc(Br)ccc32)c1-n1c2ccc(Br)cc2c2cc(Br)ccc21 yielded a fluorescence lifetime (in Cc1ccccc1) of 0.4 ns.
CCN1C(=CC2=C([O-])C(=CC3=[N+](CC)c4ccccc4C3(C)C)C2=O)C(C)(C)c2ccccc21 gave a fluorescence lifetime (in CO) of 0.2 ns and a fluorescence lifetime (in ClC(Cl)Cl) of 1.52 ns.
In the case of CNCCCC1c2ccccc2C=Cc2ccccc21, the fluorescence lifetime (in CC#N) is reported as 2.41 ns, the fluorescence lifetime (in CO) is reported as 2.38 ns and the fluorescence lifetime (in O) is reported as 2.56 ns.
F[B-]1(F)OC(c2ccccc2)=Cc2cc(Cl)nc[n+]21 showed a fluorescence lifetime (in Cc1ccccc1) of 0.19 ns.
Cc1cc(C)c2c(c1)c1cc(C)cc(C)c1n2-c1ccc2c(c1)Sc1cc3c(cc1B2c1c(C(C)C)cc(C(C)C)cc1C(C)C)B(c1c(C(C)C)cc(C(C)C)cc1C(C)C)c1ccccc1S3 showed a fluorescence lifetime (in Cc1ccccc1) of 0.65 ns and a fluorescence lifetime (in O=P(c1ccccc1)(c1ccccc1)c1ccc2oc3ccc(P(=O)(c4ccccc4)c4ccccc4)cc3c2c1) of 2 ns.
For COc1cc(/C=C2/SC(=O)NC2=O)cc(OC)c1O, the fluorescence lifetime (in C1CCCCC1) was 0.941 ns, the fluorescence lifetime (in C1COCCO1) was 1.44 ns and the fluorescence lifetime (in CC#N) was 0.521 ns. It also gave a fluorescence lifetime (in CN(C)C=O) of 4.47 ns, a fluorescence lifetime (in CO) of 0.39 ns and a fluorescence lifetime (in O) of 0.34 ns. The fluorescence lifetime (in OCC(O)CO) was 4.92 ns and the fluorescence lifetime (in OCCO) was 2.25 ns.
CC1=N/C(=C\c2cccc(N(C)C)c2)C(=O)N1C showed a fluorescence lifetime (in C1CCOC1) of 15.3 ns, a fluorescence lifetime (in CC#N) of 8.6 ns and a fluorescence lifetime (in CCCCCC) of 22.5 ns.
With COC(=O)c1ccc(C2=C3C=CC(C)=[N+]3[B-](F)(F)n3c(C)ccc32)cc1 the fluorescence lifetime (in C1CCCCC1) was 0.54 ns and the fluorescence lifetime (in Cc1ccccc1) was 0.82 ns.
Work on COC(=O)C12N=N[C@](C(=O)OC)(C3C4CCC(C4)C31)[C@@]1(C)C[C@@H]21 (stereo partly drawn) yielded a fluorescence lifetime (in CC#N) of 116 ns.
For Cc1ccc(-c2nc(-c3ccc(-c4nc(-c5ccc(C)cc5)c(-c5ccc(C)cc5)[nH]4)cc3)[nH]c2-c2ccc(C)cc2)cc1, the fluorescence lifetime (in CS(C)=O) was 1.07 ns.
In the case of Cc1cc(C)c(B(c2c(C)cc(C)cc2C)c2cc3cccc4c(B(c5c(C)cc(C)cc5C)c5c(C)cc(C)cc5C)cc5cccc2c5c34)c(C)c1, the fluorescence lifetime (in CCCCCC) is reported as 5 ns.
With N#Cc1cc(-c2ccc(F)cc2)cnc1O the fluorescence lifetime (in CC#N) was 5.22 ns, the fluorescence lifetime (in CO) was 5.23 ns and the fluorescence lifetime (in O) was 5.38 ns.
Cc1cccc(C2=Cc3ccc4ccccc4[n+]3[B-](F)(F)O2)c1 showed a fluorescence lifetime (in ClC(Cl)Cl) of 1.58 ns.
Cc1c[nH]c(=O)[nH]c1=O showed a fluorescence lifetime (in CC#N) of 0.0002 ns.
For CN(C)c1ccc(/C=C/c2cc[n+](CCCOCC(COCCC[n+]3ccc(/C=C/c4ccc(N(C)C)cc4)cc3)(COCCC[n+]3ccc(/C=C/c4ccc(N(C)C)cc4)cc3)COCCC[n+]3ccc(/C=C/c4ccc(N(C)C)cc4)cc3)cc2)cc1, the fluorescence lifetime (in CCCCCCCCO) was 0.48 ns, the fluorescence lifetime (in CCCO) was 0.18 ns and the fluorescence lifetime (in CCO) was 0.11 ns. For the same compound, the fluorescence lifetime (in CO) was 0.09 ns, the fluorescence lifetime (in ClC(Cl)Cl) was 0.46 ns and the fluorescence lifetime (in ClCCl) was 0.31 ns.
Compound c1ccc(-c2cc3c(-c4ccccc4)c4cccc5c(-c6ccccc6)cc6c(-c7ccccc7)c7cccc2c7c3c6c54)cc1 has a fluorescence lifetime (in ClCCl) of 2.97 ns.
Compound N#Cc1c(-n2c3ccccc3c3ccccc32)c(-n2c3ccccc3c3ccccc32)c(-n2c3ccccc3c3ccccc32)c(-n2c3ccc(-c4ccccc4)cc3c3cc(-c4ccccc4)ccc32)c1-n1c2ccccc2c2ccccc21 has a fluorescence lifetime (in Cc1ccccc1) of 7 ns.
In the case of CC1(C)c2ccccc2N(c2ccccc2)c2ccc(-c3nc(-c4ccccc4)nc(-c4ccccc4)n3)cc21, the fluorescence lifetime [1] is reported as 4.37 ns.
Work on Cc1ccc(C2=[N+]3C(=Cc4ccc(C)n4[B-]3(F)F)c3ccccc32)[nH]1 yielded a fluorescence lifetime (in ClCCl) of 8.11 ns.
In the case of CCC1(CC)c2cc(-c3ccc(-c4ccc5c(c4)C(CC)(CC)c4cc(C(C)(C)C)ccc4-5)cc3)ccc2-c2ccc(C(C)(C)C)cc21, the fluorescence lifetime (in CCCCC) is reported as 0.74 ns, the fluorescence lifetime (in CCCCCC) is reported as 0.69 ns and the fluorescence lifetime (in CCCCCCC) is reported as 0.7 ns. For the same compound, the fluorescence lifetime (in CCCCCCCC) was 0.7 ns, the fluorescence lifetime (in CCCCCCCCC) was 0.72 ns and the fluorescence lifetime (in CCCCCCCCCC) was 0.79 ns. The fluorescence lifetime (in CCCCCCCCCCCC) was 0.78 ns, the fluorescence lifetime (in CCCCCCCCCCCCC) was 0.82 ns and the fluorescence lifetime (in CCCCCCCCCCCCCCC) was 0.81 ns. It also gave a fluorescence lifetime (in CCCCCCCCCCCCCCCC) of 0.82 ns, a fluorescence lifetime (in CCCCCCCCCCO) of 0.79 ns and a fluorescence lifetime (in CCCCCCCCCO) of 0.87 ns. It also gave a fluorescence lifetime (in CCCCCCCCO) of 0.84 ns, a fluorescence lifetime (in CCCCCCCO) of 0.8 ns and a fluorescence lifetime (in CCCCCCO) of 0.81 ns. The fluorescence lifetime (in CCCCCO) was 0.77 ns, the fluorescence lifetime (in CCCCO) was 0.79 ns and the fluorescence lifetime (in CCCO) was 0.72 ns. For the same compound, the fluorescence lifetime (in CCO) was 0.82 ns and the fluorescence lifetime (in CO) was 0.8 ns.
For CC1(C)c2ccccc2-c2cc3c4cc(-n5c6ccccc6c6ccccc65)ccc4n(-c4ccc(-c5nc(-c6ccccc6)nc(-c6ccccc6)n5)cc4)c3cc21, the fluorescence lifetime [1] was 34 ns.
With Clc1ncc(-c2c3ccccc3c(-c3cnc(Cl)nc3)c3ccccc23)cn1 the fluorescence lifetime (in CCO) was 2.1 ns and the fluorescence lifetime (in ClCCl) was 6.2 ns.
Work on CC(C)(C)NC(=O)c1ccc2ccc3cccc4c3c2c1c1c2ccccc2c2ccccc2c41 yielded a fluorescence lifetime (in ClCCl) of 11.9 ns.
With O=Cc1ccc(N(c2ccc(C=O)cc2)c2ccc(-c3ccc4c(c3)C(=O)c3ccccc3C4=O)cc2)cc1 the fluorescence lifetime (in C1CCOC1) was 2.01 ns, the fluorescence lifetime (in CCOC(C)=O) was 1.49 ns and the fluorescence lifetime (in CCOCC) was 6.6 ns. For the same compound, the fluorescence lifetime (in Cc1ccccc1) was 6.83 ns, the fluorescence lifetime (in ClC(Cl)(Cl)Cl) was 2.82 ns and the fluorescence lifetime (in ClCCl) was 0.79 ns.
c1ccc(-c2nc(-c3ccccc3)nc(-c3ccc(-n4c5ccccc5c5c6c(ccc54)C4(c5ccccc5-c5ccccc54)c4ccccc4-6)cc3)n2)cc1 showed a fluorescence lifetime [1] of 11.1 ns.
For Cc1cc2nc3c(=O)n(C)c(=O)n(C)c3nc2cc1C, the fluorescence lifetime (in CC#N) was 0.64 ns.
For COc1ccc2ccc(O)cc2c1, the fluorescence lifetime (in O) was 8.33 ns.
In the case of COc1ccc(C2=CC(c3ccccc3)=[N+]3C2=Nc2c(-c4ccc(OC)cc4)cc(-c4ccccc4)n2[B-]3(F)F)cc1, the fluorescence lifetime (in Cc1ccccc1) is reported as 1.56 ns.
Compound Brc1ccc(-c2nc(-c3ccc(-c4nc(-c5ccc(Br)cc5)c(-c5ccc(Br)cc5)[nH]4)cc3)[nH]c2-c2ccc(Br)cc2)cc1 has a fluorescence lifetime (in CS(C)=O) of 0.55 ns.
In the case of c1ccc(/C(=C(\c2ccccc2)c2ccccc2-c2ccc(-c3ccccc3)cc2)c2ccccc2-c2ccc(-c3ccccc3)cc2)cc1, the fluorescence lifetime (in C1CCOC1) is reported as 7 ns.
COC(=O)c1noc(-c2ccccc2)c1Cl showed a fluorescence lifetime (in C1CCCCC1) of 0.67 ns.

— the Deep4Chem optical property database
